Publication PMC11406516, “The Tuberculosis Drug Candidate SQ109 and Its Analogs Have Multistage Activity against Plasmodium falciparum” (ACS Infectious Diseases, 2024)
Converted amounts (≈) assume the structure as drawn. Where two headings read alike, the source gives them in different places. Marks after values point to notes of the source that are not given here.

Tests used:
male gametes (PfNF54) = test: Male gamete exflagellation inhibition assay (EIA); assay type: cell-based; conditions: Plasmodium falciparum, 48 h, read-out: male gamete inhibition %
Description: The EIA was performed using video microscopy by capturing the movement of exflagellation centers over time as previously described.[4],[30] Mature PfNF54 stage V gametocytes (>95%;) were treated with 2 μM of drug for 48 h before the activation of exflagellation, without removing drug pressure. Movement was semi-automatically quantified from 15 videos of 8–10 s each between 15 and 22.5 min after incubation. Each video was analyzed using ICY-bio image analysis software.

oocyst formation = test: Standard membrane feeding assay (SMFA), oocyst formation in Anopheles coluzzii; assay type: in vivo; conditions: Plasmodium falciparum
Description: Transmission-blocking activity was confirmed in the standard membrane feeding assay (SMFA), by determining transmission-reducing activity (TRA; reduction in oocyst counts) and transmission-blocking activity (TBA, reduction in oocyst prevalence), 8–10 days after feeding female mosquitoes on gametocyte-infected blood, treated with selected compounds (at 2 μM).
SMFA was performed using glass feeders as is outlined.[4],[16] Once again, mature stage V gametocytes (>95%) were treated with 2 μM of each compound for 48 h prior to feeding. Anopheles coluzzii females were allowed to feed on gametocyte cultures (1.5–2.5% gametocytemia, 50% hematocrit in A+ male serum with fresh erythrocytes) in the dark for 40 min. All unfed or partially fed mosquitoes were removed, and remaining females housed for 8–10 days. Mosquitoes were dissected to remove midguts, and oocysts counted under bright field illumination at ×20–×40 magnification. The percentage of block in transmission (transmission-blocking activity; TBA) and the percentage of reduction in the number of oocysts (transmission-reducing activity; TRA) were calculated after normalizing to the control untreated sample.

female gametes = test: Female gamete inhibition assay; assay type: cell-based, Plasmodium falciparum; design: concentration or dose not given beside the values
Description: Similarly, female gametes were activated as described previously.[31] Monoclonal anti-Pfs antibody conjugated to FITC was used to detect female gametes. Image acquisition was performed using a Zeiss Axio Lab.A1 epifluorescence microscope with a 100/1.4 numerical aperture (NA) oil immersion. Thirty images were captured per sample and analyzed manually.

in vitro = in vitro ADME; conditions: microsomes
Description: The microsomal stability assay used a single-point assay design (Di et al., 2004). Briefly, the compounds were incubated at 1 μM in human, rat, and mouse liver microsomes (0.4 mg/mL) for 30 min at 37 °C. Reactions were quenched by adding ice-cold acetonitrile containing internal standard (carbamazepine, 0.0236 μg/mL). The samples were then centrifuged, and the samples were analyzed by liquid chromatography with tandem mass spectrometry (LC-MS/MS) (Agilent Rapid Resolution HPLC, AB SCIEX 4500 MS) for the disappearance of the parent compound. Half-life, clearance and hepatic […] ratios were determined using standard equations.

physchem = assay type: physicochemical; conditions: 37 °C, pH 6.5, aqueous buffer, thermodynamic from solid
Description: The stock solutions (10^–2 M) of the assayed compounds were diluted to decreased molarity, from 300 to 0.1 μM, in 384 well transparent plate (Greiner 781801) with 1% DMSO:99% PBS buffer. Then, they were incubated at 37 °C and the light scattering was measured after 2 h in a NEPHELOstar Plus (BMG LABTECH). The results were adjusted to a segmented regression to obtain the maximum concentration in which compounds are soluble.
The solubility of each product was evaluated using an HPLC Agilent 1100 with a DAD detector. The samples were injected in an Agilent Poroshell 120 EC-C18, 2.7 μm, 50 mm × 4.6 mm column at 40 °C and 0.6 mL/min flow. The mobile phase was a mixture of A = water with 0.05% formic acid and B = acetonitrile with 0.05% formic acid. The procedure followed was from 95% A–5% B to 100% B in 3 min, 100% B in 3 min, from 100% B to 95% A–5% B in 1 min, 95% A–5% B in 3 min; the injection volume was set at 75 μL. […] The samples remained at these conditions between 12–24 h. Then, the samples were filtered through a 0.45 μm PVDF filter and either directly analyzed or diluted before analyzing. The obtained area under the curve was compared with the one from the standard solution.

PfNF54 ABS [1] = test: SYBR Green I proliferation assay, asexual blood stages, drug-sensitive NF54; conditions: for IC50: Plasmodium falciparum, NF54, 96 h, read-out: Pf ABS IC50 NF54
Description: (§1) P. falciparum asexual parasites were cultured from drug-sensitive NF54 (PfNF54) and multidrug resistant strains PfK1. Parasites were maintained in human erythrocytes (O+, suspended at 5% hematocrit) in RPMI-1640 culture medium (23.81 mM sodium bicarbonate, 0.024 mg/mL gentamycin, 25 mM HEPES pH 7.5, 0.2% D-glucose, 0.2 mM hypoxanthine and Albumax II) under hypoxic conditions (5% CO2, 5% O2 and 90% N2) with moderate shaking (60 rpm) at 37 °C. Cultures were synchronized to >95% in the ring stage with 5% (w/v) D-sorbitol treatment.[28]
(§2) Activity against the asexual stage of P. falciparum was evaluated using the SYBR Green I-based fluorescence assay as previously described.[4],[16] Cellular proliferation was measured on synchronized in vitro PfNF54 ring-stage parasites (1% parasitemia, 2% hematocrit), following drug pressure for 96 h. Chloroquine was used as the positive drug control for complete inhibition of parasite proliferation.

HepG2 cells [2] = system: HepG2 cells; design: method as in Stampolaki et al.[5]; conditions: compound at 20 μM; ref Stampolaki et al.[5]; cited from earlier work
PfK1 = test: SYBR Green I proliferation assay, asexual blood stages, multidrug-resistant K1; conditions: Plasmodium falciparum, K1, read-out: Pf ABS IC50 K1
Description: as §1, §2

[3] = system: PfNF54 LGc (stage IV/V gametocytes); test: PrestoBlue late-stage gametocyte viability assay; assay type: cell-based, Plasmodium falciparum; conditions: Plasmodium falciparum, read-out: PfNF54 LGc IC50
Description: Gametocytogenesis was induced on highly synchronized (>95%) asexual ring-stage parasites from PfNF54 at 0.5% parasitemia and 6% hematocrit and thereafter maintained in glucose-deprived media as previously described.[29],[15] After 3 days, the hematocrit was decreased to 4%. Parasites were maintained in complete culture media supplemented with 50 mM N-acetyl-glucosamine 5–10 days post induction to inhibit proliferation of residual asexual blood stages. Gametocyte progression and morphology was also monitored microscopically using Giemsa-stained thin smears.
activity against the sexual stages of P. falciparum was evaluated using the PrestoBlue fluorescence assay as previously described.[4] Activity was measured on PfNF54 stage IV/V gametocytes (2% gametocytemia, 5% hematocrit) previously seeded with compounds (in non-lethal DMSO) for 48 h drug pressure, after which PrestoBlue reagent was added and incubated for 2 h. Fluorescence was detected in the supernatant at 612 nm. Dihydroartemisinin (DHA) was used as a positive drug control.

PfNF54 ABS [4] = system: PfNF54 ABS; design: method as in Stampolaki et al.[5]; conditions: drug-sensitive NF54; ref Stampolaki et al.[5]; read-out: Pf ABS IC50 NF54; cited from earlier work
HepG2 cells [5] = test: HepG2 cytotoxicity, LDH release assay; conditions: Homo sapiens, HepG2, 24 h, read-out: HepG2 EC50
Description: (§3) Furthermore, compounds were evaluated against late (stage IV/V) gametocytes from PfNF54 (PfNF54 LGc), with viability detected with PrestoBlue,[15] and orthogonally evaluated for toxicity against a human hepatocellular carcinoma line, HepG2.[16]
(§4) Human hepatocellular liver carcinoma cells (HepG2) were cultivated in vitro in Dulbecco’s Modified Eagle’s Medium (DMEM) supplemented with 10% (v/v) heat inactivated fetal bovine serum and 1% (v/v) penicillin/streptomycin.[14] Cells were detached with trypsin treatment at 80% confluency and were seeded in 96-well plates to adhere for 24 h under 5% CO2, humid (95%) conditions. Cells were subsequently exposed to drug pressure for 24 h and cytotoxicity was then determined using the lactate dehydrogenase (LDH) release assay through the colorimetric detection at 450 nm, as previously outlined.[4],[16]

[6] = HepG2 cytotoxicity, LDH release assay; conditions: human, HepG2 cells
Description: as §3, §4

[7] = 48 h drug treatment at 2 μM, single biological repeat, read-out: oocyst formation (% inhibition) TBA
[8] = 48 h drug treatment at 2 μM, single biological repeat, read-out: oocyst formation (% inhibition) TRA
[9] = stage IV/V gametocytes, 48 h drug pressure

SMILES	female gamete inhibition % (female gametes) [%]	IC50 (PfNF54 ABS [1]) [nM]	IC50 (PfK1) [nM]	IC50 [3, 9] [nM]	viability at 24 h, 20 µM [6] [%]	other results
CCCC1(NCCNC/C=C(\C)CCC=C(C)C)C2CC3CC(C2)CC1C3 (stereo not shown) [Compound 6]	64.59 ± 12.33	500 ± 140	1330 ± 500	370 ± 20		inhibition at 2 µM (male gametes (PfNF54); 2 μM): 34.6 ± 14.3%; inhibition at 2 µM (oocyst formation; [7]): 67%; inhibition at 2 µM (oocyst formation; [8]): 53%; microsomal CLint at 1 µM (in vitro; human): 322 µL/min/mg; microsomal CLint at 1 µM (in vitro; mouse): 308 µL/min/mg; microsomal CLint at 1 µM (in vitro; rat): 400 µL/min/mg; solubility (physchem): 334 µM (≈ 124 µg/mL); HepG2 % viability (HepG2 cells [2]): 100^%c
CC(C)=CCC/C(C)=C/CNCCNC(C)(C)C1C2CC3CC(C2)CC1C3 (stereo not shown) [Compound 8]	54.00 ± 2.54		1610 ± 550	290 ± 10		inhibition at 2 µM (male gametes (PfNF54); 2 μM): 23.5 ± 9.72%; microsomal CLint at 1 µM (in vitro; human): 426 µL/min/mg; microsomal CLint at 1 µM (in vitro; mouse): 218 µL/min/mg; microsomal CLint at 1 µM (in vitro; rat): 467 µL/min/mg; solubility (physchem): 2340 µM (≈ 872 µg/mL); IC50 (PfNF54 ABS [4]): 770 ± 100 nM; HepG2 % viability (HepG2 cells [2]): 100%^c
CCCCC1(NCCNC/C=C(\C)CCC=C(C)C)C2CC3CC(C2)CC1C3 (stereo not shown) [Compound 3]	67.05 ± 0.39		130 ± 30	300 ± 30		inhibition at 2 µM (male gametes (PfNF54); 2 μM): 81.4 ± 8.64%; inhibition at 2 µM (oocyst formation; [7]): 36%; inhibition at 2 µM (oocyst formation; [8]): 11%; IC50 (PfNF54 ABS [4]): 270 ± 40 nM; EC50 (HepG2 cells [5]): 10200 ± 1700 nM
CC(C)=CCC/C(C)=C/CNCCNC12CC3CC(CC(C3)C1)C2 [Compound 9]	90.50 ± 7.17	990 ± 210	2320 ± 550	700 ± 10		inhibition at 2 µM (male gametes (PfNF54); 2 μM): 96.7 ± 3.33%; inhibition at 2 µM (oocyst formation; [7]): 47%; inhibition at 2 µM (oocyst formation; [8]): 70%; EC50 (HepG2 cells [5]): 12900 ± 1400 nM
CC(C)=CCC/C(C)=C/CNCCNC1CC2CCC1C2 (stereo not shown) [Compound 10]		1170 ± 200		500 ± 70	97	solubility (physchem): 155 µM (≈ 45 µg/mL)
CC(C)=CCC/C(C)=C/CNCCOC1C2CC3CC(C2)CC1C3 (stereo not shown) [Compound 16]		3780 ± 750		> 10000	99	
CC(C)=CCC/C(C)=C/CNC(=O)CNC1C2CC3CC(C2)CC1C3 (stereo not shown) [Compound 18]						HepG2 % viability (HepG2 cells [2]): 99%^b; IC50 ([3]; 48 h): > 10000 nM
CC(C)=CCC/C(C)=C/CC/C(C)=C/CNCCNC1C2CC3CC(C2)CC1C3 (stereo not shown) [Compound 21]	86.30 ± 2.58	650	1820 ± 310	510 ± 70	75	inhibition at 2 µM (male gametes (PfNF54)): 95.5 ± 4.55%; inhibition at 2 µM (oocyst formation; 48 h, read-out: oocyst formation (% inhibition) TBA): 20%; inhibition at 2 µM (oocyst formation; 48 h, read-out: oocyst formation (% inhibition) TRA): 56%
CC(C)=CCC/C(C)=C/CN(C)CCNC1C2CC3CC(C2)CC1C3 (stereo not shown) [Compound 14]		1090 ± 350		> 10000	100	
CC(C)=CCC/C(C)=C/CNCC(=O)NC1C2CC3CC(C2)CC1C3 (stereo not shown) [Compound 17]				> 10000		IC50 (PfNF54 ABS [4]): 6490 ± 330 nM; HepG2 % viability (HepG2 cells [2]): 100%^b
CC(C)=CCC/C(C)=C/COCCNC1C2CC3CC(C2)CC1C3 (stereo not shown) [Compound 15]		2460 ± 140		> 10000	100	
C1CCC(CCNCCNC2C3CC4CC(C3)CC2C4)CC1 (stereo not shown) [Compound 24]		1240 ± 80		> 10000	27	
c1ccc(CNCCNC2C3CC4CC(C3)CC2C4)cc1 (stereo not shown) [Compound 25]		3990 ± 280		110 ± 60	91	
CCC1(NCCNC/C=C(\C)CCC=C(C)C)C2CC3CC(C2)CC1C3 (stereo not shown) [Compound 2]	78.88 ± 4.46		100 ± 20	580 ± 40		inhibition at 2 µM (male gametes (PfNF54); 2 μM): 95.5 ± 4.55%; solubility (physchem): 840 µM (≈ 301 µg/mL); IC50 (PfNF54 ABS [4]): 160 ± 70 nM; fold improvement in ABS activity compared to 1 (PfNF54 ABS [1]; PfNF54 ABS): 10 fold; EC50 (HepG2 cells [5]): 5210 ± 1330 nM
CC(C)=CCC/C(C)=C/CNCCNC1CC2CCC1CC2 (stereo not shown) [Compound 11]		1660 ± 300		220 ± 40	100	
CC(C)=CCNCCNC1C2CC3CC(C2)CC1C3 (stereo not shown) [Compound 26]		4280 ± 360		370 ± 60	99	
CC(C)=CCC/C(C)=C/CNCCNCc1ccccc1 [Compound 12]		4320 ± 600		410 ± 200	94	solubility (physchem): 160 µM (≈ 45.8 µg/mL)
